Laboratory results published in patent US4461775A, “Hydroxythioether fatty acid derivatives” (McNeilab, Inc., priority 1982, dated 1984).
pIC50: −log10 of the molar value.

Columns and labels:
[1] = tested on: guinea pig parenchymal strip (immunological release of SRS-A); experiment: guinea pig parenchymal strip: prevention of the contraction of guinea pig parenchymal tissue by immunological release of SRS-A; format: cell-based; conditions: Cavia porcellus; egg albumin challenge of sensitized guinea pig lung strip; chlorpheniramine (10^-4 M), indomethacin (10^-5 M), test compound 30 minutes prior
Experimental: The guinea pigs were sacrificed and lungs removed. Strips of subpleural parenchyma were prepared from the left and right diaphragmatic lobes and suspended in a tissue bath under 1 g of tension. After a one hour equilibration period, a dose response to histamine (10^-7 to 10^-4 M) induced contractions was performed to determine maximal contraction. The tissues were then washed and allowed to relax to baseline. Chlorpheniramine (10^-4 M), indomethacin (10^-5 M) and test compound were added 30 minutes prior to challenge with egg albumin. The response to antigen was measured in milligrams of tension.

[2] = tested on: guinea pig ileum (SRS-A induced contraction); experiment: guinea pig ileum: prevention of the contraction of guinea pig ileum caused by SRS-A; format: cell-based; conditions: Cavia porcellus; SRS-A induced contraction of isolated guinea pig ileum; atropine and chlorpheniramine (1×10^-5 M) present; read-out: G.P. Ileum IC50
Experimental: The tissue is exposed to 5 mg/ml histamine at 1-3 minute intervals until a reproducible response is obtained. Atropine (1×10^-5 M) and chlorpheniramine (1×10^-5 M) are added followed by 1-2 biological units of SRS-A. After washing the tissue, the response to BaCl2 (1×10^-3 M) was also noted.

pIC50 [2]	Structure (SMILES)	pIC50 [1]
–	CCCCCCCCCCC[C@H](O)[C@@H](CCCCC(=O)OC)SCCC(=O)OC (relative stereo) [Example 4, Erythro Methyl 7-Hydroxy-6-{[2-(methoxycarbonyl)ethyl]-thio}octadecanoate]	5.00
5.89	CCCCCCCCCCCC(O)C(CCCCC(=O)OC)SC[C@H](N)C(=O)OC (stereo partly drawn) [Example 3, Threo S-(6-Hydroxy-1-methoxycarbonyl-5-heptadecyl)-L-cysteine Methyl Ester]	< 4.00
6.00	CCCCCCCCCCC[C@H](O)[C@H](CCCCC(=O)OC)SCCC(=O)OC (relative stereo) [Example 1, Threo Methyl 7-Hydroxy-6{[2-(methoxycarbonyl)ethyl]thio}octadecanoate]	< 4.00
6.62	CCCCCCCCCCC[C@H](O)[C@H](CCCCC(=O)O)SCCC(=O)O (relative stereo) [Example 2, Threo 6-(2-Carboxyethyl)thio-7-hydroxyoctadecanoic Acid]	4.10
